In the NIST ThermoML archive (doi:10.1016/j.jct.2016.10.034):

How the values were obtained:
[1] = for viscosity / mass density: 100 kPa, Liquid; for viscosity: Falling or rolling sphere viscometry; for mass density: Vibrating tube method; for Glass transition temperature: DSC
[2] = xn = mol fraction of the nth substance listed; details: 100 kPa, Liquid, x2 = 0; for viscosity: Falling or rolling sphere viscometry; for mass density: Vibrating tube method

CC(=O)[O-].CC[N+]1(C)CCCC1 [1-ethyl-1-methylpyrrolidinium acetate]
[1]
Details | mass density [kg/m3] | viscosity [mPa·s]
298.15 K | 1064.5 | 240
303.15 K | 1061.8 | 184
308.15 K | 1058.7 | 145
313.15 K | 1055.9 | 117
318.15 K | 1053.1 | 93.4
323.15 K | 1050.3 | 74
328.15 K | 1047.4 | 60
333.15 K | 1044.4 | 49.2
338.15 K | 1041.8 | 39.4
343.15 K | 1038.8 | 32.4
348.15 K | 1035.9 | 26

Details | Glass transition temperature [°C]
[1] | -88

CC[N+]1(C)CCCC1.O=C([O-])CO [1-ethyl-1-methylpyrrolidinium glycolate]
[1]
Details | mass density [kg/m3] | viscosity [mPa·s]
298.15 K | 1134 | 345
303.15 K | 1130.7 | 254
308.15 K | 1127.3 | 192
313.15 K | 1124 | 151
318.15 K | 1120.8 | 116
323.15 K | 1117.6 | 92.2
328.15 K | 1114.4 | 76.9
333.15 K | 1111.2 | 60.6
338.15 K | 1108.1 | 49.6
343.15 K | 1105 | 41.2
348.15 K | 1101.9 | 34.2

Details | Glass transition temperature [°C]
[1] | -80

CC[N+]1(C)CCOCC1.O=C([O-])CO [N-ethyl-N-methylmorpholinium glycolate]
[1]
Details | mass density [kg/m3] | viscosity [mPa·s]
298.15 K | 1232.6 | –
303.15 K | 1229.5 | –
308.15 K | 1226.3 | –
313.15 K | 1223 | –
318.15 K | 1219.8 | 2500
323.15 K | 1216.5 | 1799
328.15 K | 1213.3 | 1155
333.15 K | 1210.1 | 854
338.15 K | 1207.2 | 666
343.15 K | 1204.1 | 488
348.15 K | 1201.1 | 363

Details | Glass transition temperature [°C]
[1] | -59

O [water] + CC(=O)[O-].CC[N+]1(C)CCCC1
[2]
Details | mass density [kg/m3] | viscosity [mPa·s]
298.15 K | – | 0.89
303.15 K | – | 0.797
308.15 K | – | 0.719
313.15 K | – | 0.653
318.15 K | – | 0.596
323.15 K | 987.9 | 0.547
328.15 K | 985.7 | 0.504
333.15 K | 983.2 | 0.466
338.15 K | 980.3 | 0.433
343.15 K | 978.1 | 0.404
348.15 K | 974.8 | 0.378

O [water] + CC[N+]1(C)CCCC1.O=C([O-])CO
[2]
Details | mass density [kg/m3] | viscosity [mPa·s]
298.15 K | – | 0.89
303.15 K | – | 0.797
308.15 K | – | 0.719
313.15 K | – | 0.653
318.15 K | – | 0.596
323.15 K | 987.9 | 0.547
328.15 K | 985.7 | 0.504
333.15 K | 983.2 | 0.466
338.15 K | 980.3 | 0.433
343.15 K | 978.1 | 0.404
348.15 K | 974.8 | 0.378

O [water] + CC[N+]1(C)CCOCC1.O=C([O-])CO
[2]
Details | mass density [kg/m3] | viscosity [mPa·s]
298.15 K | – | 0.89
303.15 K | – | 0.797
308.15 K | – | 0.719
313.15 K | – | 0.653
318.15 K | – | 0.596
323.15 K | 987.9 | 0.547
328.15 K | 985.7 | 0.504
333.15 K | 983.2 | 0.466
338.15 K | 980.3 | 0.433
343.15 K | 978.1 | 0.404
348.15 K | 974.8 | 0.378
